According to patent publication US20240358671A1, “COMPOSITIONS AND METHODS TO TREAT SKIN DISORDERS” (THE TRUSTEES OF INDIANA UNIVERSITY, priority 2021, published 2024):
“Also recorded” adds a separate entry of the source.

Experiments:
PPARδ [1] = test: PPARδ trans-activity assay; format: cell-based; conditions: human keratinocytes; 5 μmol long chain ceramides, 48 h
Description: Human keratinocytes cells were treated with 5 μmol of long chain ceramides, C18:0 and C24:0 (Avanti Polar Lipids Inc., Alabama) using Lipofectamine LTX (Thermo Fisher Scientific). Cells were collected 48 h post transfection and nuclear protein was extracted using Nuclear Extraction Kit (RayBiotech) as per manufacturer's protocol. PPARδ trans-activity was measured using PPAR delta Transcription Factor Assay Kit (abcam) as per manufacturer's instructions.

PPARδ promoter = PPARδ promoter assay; format: cell-based; conditions: human keratinocytes; PPARδ promoter reporter; 5 μmol long chain ceramides, 48 h
Description: PPARδ promoter assay was done as described previously. mNP-Luc (PPARdelta promoter) was a gift (Addgene plasmid #16532; http://n2t.net/addgene:16532; RRID:Addgene_16532. Human keratinocytes cells were co-transfected with the PPARδ promoter reporter construct and treated with 5 μmol of long chain ceramides, C:18 and C:24 (Avanti Polar Lipids Inc., Alabama) using Lipofectamine™ LTX Reagent with PLUS™ Reagent (Thermo Fisher Scientific). Media were collected 48 h post transfection and the secreted GLuc and SEAP activities were measured with the Secrete-Pair Dual Luminescence Assay Kit (GeneCopoeia) according to the manufacturer's protocol using the Berthold Luminometer (Berthold Technologies). Normalized promoter activity has been presented as the ratio of GLuc to SEAP activities.

ABCA12 = ABCA12 in human keratinocytes after PAwt biofilm infection; format: cell-based
Description: (§1) Bacterial biofilms were co-cultured with human keratinocytes cells following the method adapted from Anderson. The confluent cultures of human keratinocytes cells were inoculated with bacterial cultures of PAwt or PAΔcer (10^5 CFU/ml) in antibiotic free culture media. The plates were incubated for 1 h at 37° C. and 5% CO2. Post 1 h, fresh DMEM (without antibiotics) supplemented with 0.4% arginine was added to the plate. Post 7-8 hours, cells were harvested. The co-culture media was filtered using 0.2 μm filters and used for ceramidastin experiment. Human keratinocytes were treated with conditioned media (25% v/v) of cells co-cultured with PAwt biofilm containing ceramidastin (10 μg/ml) for 24 h.
(§2) OCT embedded wound tissue blocks were sectioned using a cryostat. […] To enable fluorescence detection, sections were incubated with appropriate Alexa Fluor® 488 (green, Molecular probes), Alexa Fluor® […] (red, Molecular probes) conjugated secondary antibodies. […] Mosaic images were collected using collected using a Zeiss Axiovert 200 M, inverted fluorescence microscopy or confocal microscopy (LSM880). Image analysis was performed using Zen (Zeiss) software to quantitate fluorescence intensity (fluorescent pixels).

PA bcdase = target: T1, PA bcdase (Pseudomonas aeruginosa, UniProt Q9I596); test: Ex vivo extracted skin lipids treated with biofilm-conditioned media, ceramides by LC-MS/MS; format: biochemical; conditions: conditioned media contained ceramidastin
T1 construct: cutaneous lipids exposed to biofilm-infected keratinocyte conditioned media (CM); endogenous in cells; host or cells: Wild-type Pseudomonas aeruginosa (PAwt) biofilm co-cultured with human keratinocytes; the conditioned medium holds the enzyme
Description: FIGS. 8A-8N illustrate ceramide depletion. FIGS. 8A-8L Ceramide depletion, as measured by LC-MS/MS, in cutaneous lipids exposed to biofilm-infected keratinocyte conditioned media (CM). As indicated, to test the significance of PA bcdase, the CM contained ceramidastin (CST). Lipids were extracted and analyzed using an untargeted approach as described in Materials and Methods. The resultant data were analyzed using R 3.3. Wilcoxon Rank-Sum test was used for all group analyses and Kruskal-Wallis followed by Benjamini Hochberg correction was performed for multiple comparisons with significance at p<0.05. Skin ceramides have been denoted using the standard nomenclature following the format of fatty acyl type, sphingoid backbone type, and sphingoid backbone length-fatty acyl length. NS=Cer 2 (with non-hydroxy fatty acid, sphingoid backbone); NP=Cer 3 (non-hydroxy fatty acid, phytopshingoid backbone); NH=Cer 8 (non-hydroxy fatty acid, 6-hydroxy sphingoid backbone); NDS=Cer 10 (non-hydroxy fatty acid, dihydroxy sphingoid backbone); AS=Cer 5 (α-hydroxy fatty acid, sphingoid backbone); AP=Cer 6 (α-hydroxy fatty acid, phytosphingoid backbone). The Y-axis values are in mol %. (M) Digital wound images and planimetry shown. […]
Untargeted lipidomics was undertaken as previously published. […] Finally, lipids were analyzed via the use of MS/MSALL approach as previously disclosed. […]

Human keratinocytes (HK) = test: Human keratinocytes-Pseudomonas biofilm co-culture conditioned media: keratinocyte ceramide by anti-ceramide immunostaining; format: cell-based; conditions: HK treated with conditioned media (25% v/v) of cells co-cultured with PA biofilm containing ceramidastin 10 μg/ml, 24 h
Source text: FIGS. 7A-7U relate to ceramide depletion and ceramidastin rescue. FIGS. 7A-7S: Ceramide depletion, as measured by LC-MS/MS, in cutaneous lipids. Following exposure to bacteria as applicable, lipids were extracted and analyzed via a targeted approach. Data thus obtained were subjected to analysis by ANOVA using R3.5.3 to specifically identify those lipids with significant differences between the three groups. Those with significance as tested by ANOVA were subjected to post hoc analysis using Tukey-HSD with a FDR cutoff of 0.05. Lipids with group differences that passed these thresholds were illustrated as box plots. Skin ceramides have been denoted using the standard nomenclature following the format of fatty acyl type, sphingoid backbone type, and sphingoid backbone length-fatty acyl length. […]
as §2

PPARδ [2] = test: PPARδ expression in human keratinocyte biofilm infection; format: cell-based; conditions: in the presence of ceramidastin
Description: as §1
Western blot was performed using antibodies against anti-PPARδ (Thermo Scientific, 1:500), anti-CerS3 (Origene, 1:500). β-actin (Sigma Aldrich, 1:5000) was used as housekeeping.

CerS3 = CerS3 expression in human keratinocytes treated with PPARδ agonist or antagonist, qPCR; format: cell-based; conditions: 1 μmol/ml
Source text: FIGS. 11A-11O illustrate additional experimental results. FIG. 11A: Vector map of PPARδ promoter luciferase reporter. FIGS. 11B-11C: PPARδ drives CerS3 expression. CerS3 expression in human keratinocytes (HK) treated with PPARδ agonist (GW501516, 1 μmol/ml) or antagonist (GSK0660, 1 μmol/ml) as measured by qPCR. Data presented as mean±SEM (n=5). FIGS. 11D-11F: Upregulation of DNA methyl transferases in S-1-P treated HK. Data presented as mean±SEM (n=8). FIGS. 11G-11J: Induction of histone deacetylases in S-1P treated HK. Data presented as mean±SEM (n=8). FIGS. 11K-11N) Other histone deacetylases in S-1P treated HK. […] Data presented as mean±SEM, (n=8). FIG. 11O: miR-106b expression in HK treated with S-1-P (5 μmol/ml). Data presented as mean±SEM (n=8).

[3] = system: Staphylococcus epidermidis; conditions: cited from earlier work
[4] = system: Staphylococcus epidermidis biofilm; conditions: cited from earlier work
Micrococcus luteus = conditions: cited from earlier work
S. aureus = conditions: cited from earlier work
P. aeruginosa = conditions: cited from earlier work
Propionibacterium acnes = conditions: cited from earlier work
Streptococcus pyogenes = conditions: cited from earlier work

T1 sequence (Q9I596 25-670): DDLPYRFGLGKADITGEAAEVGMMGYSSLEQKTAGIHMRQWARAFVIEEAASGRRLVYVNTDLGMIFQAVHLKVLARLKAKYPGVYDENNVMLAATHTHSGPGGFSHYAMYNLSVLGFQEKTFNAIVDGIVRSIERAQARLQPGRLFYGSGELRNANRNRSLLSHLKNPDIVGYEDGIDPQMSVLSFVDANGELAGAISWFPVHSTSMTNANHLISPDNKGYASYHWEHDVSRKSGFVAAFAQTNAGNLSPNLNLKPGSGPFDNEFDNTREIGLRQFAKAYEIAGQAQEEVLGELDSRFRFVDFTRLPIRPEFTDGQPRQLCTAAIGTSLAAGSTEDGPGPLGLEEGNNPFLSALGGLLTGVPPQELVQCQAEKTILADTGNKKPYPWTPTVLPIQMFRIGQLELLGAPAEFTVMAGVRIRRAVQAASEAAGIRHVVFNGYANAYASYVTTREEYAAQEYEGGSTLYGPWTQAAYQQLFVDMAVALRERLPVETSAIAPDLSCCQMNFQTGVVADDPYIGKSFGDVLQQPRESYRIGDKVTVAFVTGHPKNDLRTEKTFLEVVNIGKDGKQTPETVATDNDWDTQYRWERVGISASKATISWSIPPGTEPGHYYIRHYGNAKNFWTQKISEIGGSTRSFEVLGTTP

CCCCCCCCCCCCC/C=C/[C@@H](O)[C@H](CO)NC(=O)CCCCCCCCCCCCCCCCC [C18]
PPARδ transactivation (PPARδ [1]): induced
PPARδ transcription (PPARδ promoter): induced

CCCCCCCCCCCCC/C=C/[C@@H](O)[C@H](CO)NC(=O)CCCCCCCCCCCCCCCCCCCCCCC [C24]
PPARδ transactivation (PPARδ [1]): induced
PPARδ transcription (PPARδ promoter): induced

CCCCCCC(O)C1C2=C(CC(C(O)C(O)C/C=C/CO)CC3=C(C(=O)OC3=O)C1O)C(=O)OC2=O (centres unmarked) [Ceramidastin]
loss of ABCA12 in response to biofilm infection by PAwt (ABCA12): prevented
ceramides in extracted skin lipids treated with biofilm-conditioned media (PA bcdase): rescue of ceramides
keratinocyte ceramide after PAwt biofilm infection (Human keratinocytes (HK)): rescued keratinocyte ceramide against loss; also recorded: rescued depletion of keratinocyte ceramide
PPARδ expression blunted by biofilm infection (PPARδ [2]): rescued

COC(=O)c1sccc1S(=O)(=O)Nc1ccc(Nc2ccccc2)cc1OC [GSK0660]
CerS3 expression (CerS3): blunted the expression of CerS3

Cc1cc(SCc2sc(-c3ccc(C(F)(F)F)cc3)nc2C)ccc1OCC(=O)O [GW501516]
CerS3 expression (CerS3): increased expression of CerS3

CCCCCCCCCCCCC/C=C/[C@@H](O)[C@@H](N)CO [Sphingosine]
killing of Staphylococcus epidermidis [3]: effectively killed
Staphylococcus epidermidis biofilm on orthopedic implant materials [4]: prevented and eliminated
killing of Micrococcus luteus (Micrococcus luteus): effectively killed
killing of S. aureus (S. aureus): effectively killed
killing of P. aeruginosa (P. aeruginosa): moderately killed
killing of Propionibacterium acnes (Propionibacterium acnes): effectively killed
killing of Streptococcus pyogenes (Streptococcus pyogenes): effectively killed
